Measured values from patent US11618747B2, “LXR modulators with bicyclic core moiety” (OrsoBio, Inc., priority 2018, dated 2023).
Like-named read-outs stand apart in the source and are kept apart here.

Target: T1, ligand-binding domain (LBD) of LXRα (Homo sapiens, UniProt Q13133)
T1 construct: expressed in transfected cells; host or cells: HEK293
T1 sequence (Q13133 155-447): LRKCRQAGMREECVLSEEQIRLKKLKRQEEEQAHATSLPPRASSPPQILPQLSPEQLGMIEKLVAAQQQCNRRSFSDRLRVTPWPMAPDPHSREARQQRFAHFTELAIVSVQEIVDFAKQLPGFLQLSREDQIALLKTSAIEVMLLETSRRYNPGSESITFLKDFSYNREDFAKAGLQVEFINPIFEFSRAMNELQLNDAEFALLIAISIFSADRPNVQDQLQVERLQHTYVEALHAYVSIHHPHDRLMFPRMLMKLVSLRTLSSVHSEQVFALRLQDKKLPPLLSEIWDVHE
Experiment: LXR Gal4 reporter transient transfection assay (LBD-M2H Gal4α)
Type: cell-based
Settings: HEK293 cells
Procedure, shortened: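 Test compounds act for 16 h on transiently transfected HEK293 cells carrying AD-LXR and GAL4 BD-cofactor (SRC1 or NCoR) fusions. Firefly luciferase under GAL4 elements is quantified and corrected with Renilla luciferase for transfection efficiency.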

[1] = LXRα LBD, read-out: LBD-M2H Gal4α (EC50 range)

Cc1ccc(S(=O)(=O)n2c(-c3cccc(N4CC(C(=O)O)C4)c3)c(-c3ccsc3C#N)c3cc(F)ccc32)cc1 [3/32]
LBD-M2H Gal4α efficacy (value in brackets): 103%
EC50 (read-out: LBD-M2H Gal4α potency): 106 nM

Cc1ccc(S(=O)(=O)n2c(-c3cccc(N4CC(C(=O)O)C4)c3)c(-c3ccsc3C#N)c3cc(F)c(F)cc32)cc1 [3/42]
EC50 [1]: 100 to 1000 nM

Cc1ccc(S(=O)(=O)n2c(-c3cccc(N4CC(C(=O)O)C4)c3)c(-c3ccsc3C#N)c3cc(F)c(Cl)cc32)cc1 [3/43]
EC50 [1]: 100 to 1000 nM

Cc1ccc(S(=O)(=O)n2c(-c3cccc(N4CC(C(=O)O)C4)c3)c(-c3ccsc3C#N)c3cc(Cl)ccc32)cc1 [3/44]
EC50 [1]: < 100 nM

Cc1ccc(S(=O)(=O)n2c(-c3cccc(N4CC(C(=O)O)C4)c3)c(-c3ccsc3C#N)c3cc(C)ccc32)cc1 [3/46]
EC50 [1]: < 100 nM
